From article doi:10.1101/2021.04.08.439011v1 (biorxiv, 2021)

Tests used:
Conditions in all cases: 1 µM; binder
LRRK2 = LRRK2 (Homo sapiens, UniProt Q5S007)
FLT3 = biological target: T1, FLT3 (Homo sapiens, UniProt P36888)
T1 sequence (P36888 1-993): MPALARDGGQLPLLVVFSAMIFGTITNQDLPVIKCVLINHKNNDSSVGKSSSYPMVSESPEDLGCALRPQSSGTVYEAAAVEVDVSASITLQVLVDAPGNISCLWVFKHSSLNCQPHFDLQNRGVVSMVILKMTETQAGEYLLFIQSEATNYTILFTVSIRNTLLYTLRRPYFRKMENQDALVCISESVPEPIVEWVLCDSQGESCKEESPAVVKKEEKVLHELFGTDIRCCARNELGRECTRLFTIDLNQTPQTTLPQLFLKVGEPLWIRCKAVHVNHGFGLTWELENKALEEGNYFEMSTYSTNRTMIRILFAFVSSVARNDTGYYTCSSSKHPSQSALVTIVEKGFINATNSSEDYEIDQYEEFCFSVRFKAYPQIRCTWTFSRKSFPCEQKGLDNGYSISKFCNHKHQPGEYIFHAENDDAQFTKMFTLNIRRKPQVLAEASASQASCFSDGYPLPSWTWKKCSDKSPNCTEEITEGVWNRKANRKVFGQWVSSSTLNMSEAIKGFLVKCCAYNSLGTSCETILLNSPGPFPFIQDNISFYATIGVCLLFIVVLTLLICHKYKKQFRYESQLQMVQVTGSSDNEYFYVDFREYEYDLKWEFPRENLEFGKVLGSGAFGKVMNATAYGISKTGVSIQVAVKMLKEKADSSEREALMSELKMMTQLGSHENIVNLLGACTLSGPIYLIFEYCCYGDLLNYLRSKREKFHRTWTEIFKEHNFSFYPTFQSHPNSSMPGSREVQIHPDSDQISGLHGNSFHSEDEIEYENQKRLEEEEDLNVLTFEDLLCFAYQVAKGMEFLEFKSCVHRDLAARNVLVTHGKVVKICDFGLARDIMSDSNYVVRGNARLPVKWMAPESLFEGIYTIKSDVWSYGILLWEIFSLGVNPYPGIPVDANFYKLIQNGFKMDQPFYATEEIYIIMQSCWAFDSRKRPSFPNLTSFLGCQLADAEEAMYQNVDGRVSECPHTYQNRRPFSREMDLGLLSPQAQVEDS

FLT1 = FLT1 (Homo sapiens, UniProt P17948)
Chain of FLT1 (P17948 whole entry): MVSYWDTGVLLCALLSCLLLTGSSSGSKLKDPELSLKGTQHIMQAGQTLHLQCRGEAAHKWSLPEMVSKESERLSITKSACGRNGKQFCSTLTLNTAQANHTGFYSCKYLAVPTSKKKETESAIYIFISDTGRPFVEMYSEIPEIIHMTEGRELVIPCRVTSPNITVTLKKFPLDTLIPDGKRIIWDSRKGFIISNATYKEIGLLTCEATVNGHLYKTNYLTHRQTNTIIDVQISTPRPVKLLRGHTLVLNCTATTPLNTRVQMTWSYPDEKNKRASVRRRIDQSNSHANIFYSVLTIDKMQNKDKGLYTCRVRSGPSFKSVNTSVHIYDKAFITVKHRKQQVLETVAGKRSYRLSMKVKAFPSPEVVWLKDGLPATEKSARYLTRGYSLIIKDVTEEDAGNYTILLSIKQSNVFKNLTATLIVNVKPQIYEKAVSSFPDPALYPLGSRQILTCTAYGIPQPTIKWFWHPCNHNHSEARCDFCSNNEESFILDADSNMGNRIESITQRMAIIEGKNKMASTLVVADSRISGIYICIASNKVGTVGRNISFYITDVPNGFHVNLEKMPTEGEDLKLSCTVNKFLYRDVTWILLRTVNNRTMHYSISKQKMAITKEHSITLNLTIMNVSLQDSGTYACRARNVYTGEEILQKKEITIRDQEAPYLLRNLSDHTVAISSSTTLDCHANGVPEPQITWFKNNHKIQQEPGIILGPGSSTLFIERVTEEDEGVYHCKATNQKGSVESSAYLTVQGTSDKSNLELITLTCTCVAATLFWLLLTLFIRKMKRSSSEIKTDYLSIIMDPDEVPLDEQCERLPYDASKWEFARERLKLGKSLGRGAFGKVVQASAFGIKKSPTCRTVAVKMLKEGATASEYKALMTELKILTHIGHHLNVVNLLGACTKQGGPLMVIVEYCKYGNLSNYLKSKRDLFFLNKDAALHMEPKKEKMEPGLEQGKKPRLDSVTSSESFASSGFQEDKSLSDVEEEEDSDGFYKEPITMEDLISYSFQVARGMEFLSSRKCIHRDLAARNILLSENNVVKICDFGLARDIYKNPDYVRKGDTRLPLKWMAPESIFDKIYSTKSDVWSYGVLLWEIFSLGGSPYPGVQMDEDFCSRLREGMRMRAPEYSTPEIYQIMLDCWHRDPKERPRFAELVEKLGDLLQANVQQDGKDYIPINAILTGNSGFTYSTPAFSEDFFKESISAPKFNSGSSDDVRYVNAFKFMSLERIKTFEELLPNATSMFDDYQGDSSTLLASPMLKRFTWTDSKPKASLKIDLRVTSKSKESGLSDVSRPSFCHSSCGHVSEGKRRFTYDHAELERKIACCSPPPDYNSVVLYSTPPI

MLK3 = MLK3 (Homo sapiens, UniProt Q16584)
PAK7 = PAK7 (Homo sapiens, UniProt Q9P286)
TAOK3 = TAOK3 (Homo sapiens, UniProt Q9H2K8)
Chain of TAOK3 (Q9H2K8 whole entry): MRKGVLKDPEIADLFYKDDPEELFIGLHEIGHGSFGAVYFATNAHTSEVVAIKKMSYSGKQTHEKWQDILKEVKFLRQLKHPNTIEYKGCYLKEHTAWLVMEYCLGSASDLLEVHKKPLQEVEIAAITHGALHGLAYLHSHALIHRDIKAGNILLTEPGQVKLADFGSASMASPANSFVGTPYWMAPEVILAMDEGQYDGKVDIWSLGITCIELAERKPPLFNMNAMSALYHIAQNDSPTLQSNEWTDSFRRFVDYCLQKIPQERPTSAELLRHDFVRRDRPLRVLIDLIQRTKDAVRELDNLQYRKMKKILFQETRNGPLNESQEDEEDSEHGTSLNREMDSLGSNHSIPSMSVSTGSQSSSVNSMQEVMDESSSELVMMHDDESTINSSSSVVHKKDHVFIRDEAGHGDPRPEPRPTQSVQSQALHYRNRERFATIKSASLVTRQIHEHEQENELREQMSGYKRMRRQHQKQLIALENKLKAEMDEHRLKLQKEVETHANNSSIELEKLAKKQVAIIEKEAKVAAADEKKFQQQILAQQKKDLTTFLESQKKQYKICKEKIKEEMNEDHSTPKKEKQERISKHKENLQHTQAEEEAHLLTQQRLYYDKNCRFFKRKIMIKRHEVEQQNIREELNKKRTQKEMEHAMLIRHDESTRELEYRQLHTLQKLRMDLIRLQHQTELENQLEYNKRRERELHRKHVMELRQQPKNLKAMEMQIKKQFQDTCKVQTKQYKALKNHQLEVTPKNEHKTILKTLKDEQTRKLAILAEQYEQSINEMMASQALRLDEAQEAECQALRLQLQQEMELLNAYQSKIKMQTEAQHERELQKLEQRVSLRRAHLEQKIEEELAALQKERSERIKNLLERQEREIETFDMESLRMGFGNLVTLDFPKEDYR

RET(V804L) = RET(V804L) (Homo sapiens, UniProt P07949, V804L)
BMPR1A = BMPR1A (Homo sapiens, UniProt P36894)
Chain of BMPR1A (P36894 whole entry): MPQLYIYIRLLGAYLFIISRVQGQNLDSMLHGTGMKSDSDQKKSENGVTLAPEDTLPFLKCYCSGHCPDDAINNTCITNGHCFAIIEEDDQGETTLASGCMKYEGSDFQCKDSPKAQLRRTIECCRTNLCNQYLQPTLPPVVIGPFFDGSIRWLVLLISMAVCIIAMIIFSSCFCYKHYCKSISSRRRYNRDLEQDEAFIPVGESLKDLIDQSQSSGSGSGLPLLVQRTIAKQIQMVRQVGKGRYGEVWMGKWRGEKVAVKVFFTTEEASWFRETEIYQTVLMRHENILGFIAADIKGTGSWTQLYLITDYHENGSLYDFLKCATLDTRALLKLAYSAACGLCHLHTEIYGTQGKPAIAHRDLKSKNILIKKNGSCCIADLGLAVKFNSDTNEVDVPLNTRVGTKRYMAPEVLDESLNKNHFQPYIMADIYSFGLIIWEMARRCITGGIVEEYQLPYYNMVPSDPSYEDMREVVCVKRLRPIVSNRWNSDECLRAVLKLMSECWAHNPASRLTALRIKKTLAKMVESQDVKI

MST4 = MST4 (Homo sapiens, UniProt Q9P289)
CIT = CIT (Homo sapiens, UniProt O14578)
MAST1 = MAST1 (Homo sapiens, UniProt Q9Y2H9)
TGFBR2 = TGFBR2 (Homo sapiens, UniProt P37173)
Chain of TGFBR2 (P37173 whole entry): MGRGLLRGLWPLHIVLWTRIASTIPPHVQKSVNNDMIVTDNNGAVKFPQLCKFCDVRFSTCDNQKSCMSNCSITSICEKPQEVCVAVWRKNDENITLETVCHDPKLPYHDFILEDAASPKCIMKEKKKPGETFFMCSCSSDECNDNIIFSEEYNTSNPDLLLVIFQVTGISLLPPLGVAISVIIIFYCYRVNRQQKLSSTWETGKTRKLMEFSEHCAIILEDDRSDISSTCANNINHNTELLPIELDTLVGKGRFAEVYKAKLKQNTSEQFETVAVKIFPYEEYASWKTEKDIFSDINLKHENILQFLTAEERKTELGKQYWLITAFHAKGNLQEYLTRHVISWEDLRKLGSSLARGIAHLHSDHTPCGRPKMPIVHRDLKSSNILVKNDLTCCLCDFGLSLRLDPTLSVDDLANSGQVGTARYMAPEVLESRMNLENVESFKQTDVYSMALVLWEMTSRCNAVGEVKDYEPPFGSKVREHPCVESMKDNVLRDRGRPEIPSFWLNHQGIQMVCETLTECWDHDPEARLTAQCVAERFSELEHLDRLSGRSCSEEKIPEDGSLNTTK

EGFR = EGFR (Homo sapiens, UniProt P00533)
Chain of EGFR (P00533 whole entry): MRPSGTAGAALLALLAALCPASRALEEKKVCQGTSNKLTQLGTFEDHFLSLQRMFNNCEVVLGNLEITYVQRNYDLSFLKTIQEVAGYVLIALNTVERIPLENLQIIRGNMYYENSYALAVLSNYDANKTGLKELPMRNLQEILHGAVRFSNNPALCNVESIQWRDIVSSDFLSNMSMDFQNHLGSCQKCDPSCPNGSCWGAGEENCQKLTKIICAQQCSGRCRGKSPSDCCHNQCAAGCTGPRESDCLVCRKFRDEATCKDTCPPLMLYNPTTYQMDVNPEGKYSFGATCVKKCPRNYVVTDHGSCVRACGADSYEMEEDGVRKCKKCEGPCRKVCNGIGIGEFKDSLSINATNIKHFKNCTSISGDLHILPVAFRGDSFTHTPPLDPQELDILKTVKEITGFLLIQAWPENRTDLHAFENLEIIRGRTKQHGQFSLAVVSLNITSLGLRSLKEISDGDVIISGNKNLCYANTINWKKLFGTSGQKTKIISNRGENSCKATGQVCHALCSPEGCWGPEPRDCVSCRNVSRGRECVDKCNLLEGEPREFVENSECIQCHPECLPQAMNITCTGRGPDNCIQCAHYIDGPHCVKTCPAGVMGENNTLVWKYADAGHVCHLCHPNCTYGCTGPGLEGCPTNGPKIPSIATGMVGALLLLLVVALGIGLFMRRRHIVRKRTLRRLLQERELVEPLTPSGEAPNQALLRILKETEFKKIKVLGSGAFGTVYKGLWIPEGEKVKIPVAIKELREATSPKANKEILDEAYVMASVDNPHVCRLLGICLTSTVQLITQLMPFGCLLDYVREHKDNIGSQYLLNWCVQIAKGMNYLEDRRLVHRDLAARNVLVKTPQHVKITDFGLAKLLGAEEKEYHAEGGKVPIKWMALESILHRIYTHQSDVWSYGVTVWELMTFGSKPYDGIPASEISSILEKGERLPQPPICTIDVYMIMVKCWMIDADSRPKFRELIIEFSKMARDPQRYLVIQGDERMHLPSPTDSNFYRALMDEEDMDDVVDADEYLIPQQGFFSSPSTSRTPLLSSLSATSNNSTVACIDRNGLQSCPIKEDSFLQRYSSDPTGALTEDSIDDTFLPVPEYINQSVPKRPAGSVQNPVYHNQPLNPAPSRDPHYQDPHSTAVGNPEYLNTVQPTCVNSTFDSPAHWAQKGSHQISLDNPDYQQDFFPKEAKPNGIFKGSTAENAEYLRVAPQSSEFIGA

ALK(C1156Y) = ALK(C1156Y) (Homo sapiens, UniProt Q9UM73, C1156Y)
AMPK-alpha2 = AMPK-alpha2 (Homo sapiens, UniProt P54646)
PLK3 = PLK3 (Homo sapiens, UniProt Q9H4B4)
MET = MET (Homo sapiens, UniProt P08581)
PLK2 = PLK2 (Homo sapiens, UniProt Q9NYY3)
MST3 = MST3 (Homo sapiens, UniProt Q9Y6E0)
Chain of MST3 (Q9Y6E0 whole entry): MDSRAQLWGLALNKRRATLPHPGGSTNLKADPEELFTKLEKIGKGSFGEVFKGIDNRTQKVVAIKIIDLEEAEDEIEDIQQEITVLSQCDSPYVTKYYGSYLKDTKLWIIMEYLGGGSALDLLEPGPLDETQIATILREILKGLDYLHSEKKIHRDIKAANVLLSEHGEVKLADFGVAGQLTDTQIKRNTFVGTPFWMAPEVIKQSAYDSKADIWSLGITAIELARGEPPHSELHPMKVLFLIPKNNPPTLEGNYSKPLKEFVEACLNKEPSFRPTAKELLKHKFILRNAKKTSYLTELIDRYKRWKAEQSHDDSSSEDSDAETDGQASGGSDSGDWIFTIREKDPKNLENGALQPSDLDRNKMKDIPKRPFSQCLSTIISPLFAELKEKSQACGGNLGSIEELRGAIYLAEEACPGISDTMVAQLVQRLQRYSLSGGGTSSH

p38-alpha = p38-alpha (Homo sapiens, UniProt Q16539)
CDKL5 = CDKL5 (Homo sapiens, UniProt O76039)

## CNc1ncc2cc(-c3ccc(-c4cccc(C)n4)cc3Cl)c(=O)n(C[C@H]3OC[C@H](N)CO3)c2n1 [compound 6, G-5555]
LRRK2
  Percent Control: 100%
FLT3
  Percent Control: 100%
FLT1
  Percent Control: 100%
MLK3
  Percent Control: 100%
PAK7
  Percent Control: 82%
TAOK3
  Percent Control: 100%
RET(V804L)
  Percent Control: 100%
BMPR1A
  Percent Control: 85%
MST4
  Percent Control: 0%
CIT
  Percent Control: 100%
MAST1
  Percent Control: 0.4%
TGFBR2
  Percent Control: 100%
EGFR
  Percent Control: 88%
ALK(C1156Y)
  Percent Control: 100%
AMPK-alpha2
  Percent Control: 47%
PLK3
  Percent Control: 93%
MET
  Percent Control: 40%
PLK2
  Percent Control: 84%
MST3
  Percent Control: 1.7%
p38-alpha
  Percent Control: 100%
CDKL5
  Percent Control: 97%
